Results on eight molecules are retold here after patent publication US8207167B2, “Aryl-phenyl-sulfonamide-phenylene compounds and their use” (PIMCO 2664 Limited, priority 2008, dated 2012).

In brackets after ≈: the same amount, converted by molar mass. Some results are limits rather than exact numbers.

In one data set the test system is J774 macrophages. Kind of data set: Alamar Blue macrophage J774 viability assay. Format: cell-based. To be noted: Mus musculus, 72 hours culture with compound, Alamar Blue read-out. As to the method: (§1) Initial screening of candidate compounds was performed using in vitro assays to determine potency, metabolic stability and solubility in biologically relevant fluids. Potency was assessed using a viability assay based on the survival of the J774 macrophage cell line. Macrophages are closely related to osteoclasts and have been used previously as a model system for osteoclast survival (see, e.g., Luckman et al., 1998). Like osteoclasts, J774 macrophages are dependent on continued NFκB activation for survival, thereby providing a valuable screen for compounds with anti-inflammatory activity. Metabolic stability was measured by determining the rate of disappearance of compound in the presence of human liver microsomal preparations, as quantified by LC-MS/MS. Solubility was measured by equilibration of the compound in fasted state simulated intestinal fluid (FaSSIF) and quantified by HPLC.
In vitro potency as anti-inflammatory agents was determined for a number of APSAP compounds by incubation with J774 macrophages and subsequent determination of cell viability.
J774 cells were plated at 10^4 cells per well in 100 μL αMEM (α Modified Eagle Medium) in 96-well plates and grown overnight. The next day, test compounds were added to the cultures, and cultures were continued for another 72 hours. At the end of the culture period, cell survival was determined using an Alamar Blue assay as previously described (see, e.g., Nociari et al., 1998).
Alamar Blue is an oxidation-reduction sensitive indicator. The dye itself is in the oxidised state, which is blue and non-fluorescent. The dye can accept electrons from reducing species, such as NADPH and FADH, to form a reduced dye species, which is red and fluorescent. Thus the transformation from oxidised form to reduced form can be measured by fluorimetric or colourimetric means. For fluorescence measurements, 530-560 nm excitation and 590 nm emission wavelengths are typically used. For colourimetric measurements, absorbance at 570 nm (reduced form) and 600 nm (oxidised form) is typically measured. A simple calculation is performed to determine the relative quantities of the two species.
A high ratio of the reducing species, NADPH and FADH, to the corresponding oxidised species, NADP and FAD, is an indicator that cells are proliferating and viable. A low ratio indicates cells that are quiescent or non-viable.
Briefly, Alamar Blue (Biosource International) was added undiluted to each well (1:10 v/v, 10 μL). The plate was incubated at 37° C. for 3-4 hours and the fluorescence was measured at 590 nm, with a 25 nm bandwidth. A high reading indicated cells with normal viability, and a low reading indicated cells that have been damaged and are no longer proliferating normally. The controls gave a high fluorescence reading, indicating a high number of live, healthy cells. A potent test compound gave a low fluorescence reading.
The average results for each test compound (n=5) were expressed as a percent (%) of the average control value.
Addition of Compounds. All of the compounds studied were made up as 100 mM solutions in DMSO. These stock solutions were then diluted 1000-10000× in culture medium (αMEM). From these 100 μM or 10 μM solutions, convenient quantities (3-33 μL) were added directly to the wells so as to give the desired final compound concentration.
Background: Alamar Blue is a resazurin reagent that responds to reducing activity.

The nature of data set [1]: Human liver microsomal stability assay. Format: in vitro ADME. To be noted: pooled human liver microsomes 0.5 mg/mL, test compound 3 μM, 45 minute incubation, NADPH; for half-life at 3 μM: both sexes, pH 7.4. As to the method:
as §1
Metabolic stability of APSAP derivatives was measured by determination of the rate of compound disappearance when incubated in the presence of human liver microsomes. Liver microsomes are prepared from the endoplasmic reticulum of hepatocytes and are the primary source of the most important enzymes (cytochrome P450) involved in drug metabolism. Study of drug stability in the presence of liver microsomes is accepted as a valuable model permitting rapid prediction of in vivo drug stability.
Human liver microsomes were obtained from a commercial source. Test compounds (3 μM) were incubated with pooled liver microsomes (male and female). Samples were incubated for a 45 minute period and removed at 5 time points and test compounds were analysed by LC-MS/MS.
The final incubation volume was 25 μL. A control incubation was included for each compound tested, where 0.1 M phosphate buffer pH 7.4 was added instead of NADPH. The control compounds testosterone and 7-hydroxycoumarin were included in each experiment and all incubations were performed singularly for each compound.
Each compound was incubated for 0, 5, 15, 30, and 45 minutes. The control (minus NADPH) was incubated for 45 minutes only. The reactions were stopped by the addition of 50 μL methanol containing internal standard at the appropriate time points. The incubation plates were centrifuged at 2500 rpm for 20 minutes at 4° C. to precipitate the protein.
Following protein precipitation, the sample supernatants were combined in cassettes of up to 4 compounds and analysed using standard LC-MS/MS conditions.
From a plot of the natural logarithm of the peak area ratio (i.e., the ratio of compound peak area:internal standard peak area) against time, the gradient of the line was determined. Subsequently, half-life and intrinsic clearance were calculated using the equations below: Eliminated rate constant(k)=(−gradient). […] Intrinsic Clearance(CLint)([…])=(V×0.693)/t1/2. wherein V=Incubation volume(μL/mg microsomal protein). Pharmacokinetics Studies
In general terms: Liver microsomes are vesicles of endoplasmic reticulum, rich in cytochrome P450 enzymes.

Data set [2] can be described thus: Thermodynamic aqueous solubility in fasted state simulated intestinal fluid (FaSSIF). Format: physicochemical. The settings on record: fasted state simulated intestinal fluid (FaSSIF), pH 6.5, thermodynamic from solid, 25° C., 24 hours equilibration, HPLC. How it is done:
as §1
Thermodynamic aqueous solubility was measured by equilibration of a number of APSAP compounds, in the solid state, with fasted state simulated intestinal fluid (FaSSIF) and quantified by HPLC. Measurement of solubility in FaSSIF provides a valuable model for the prediction of drug dissolution following oral administration.
Preparation of blank FaSSIF: NaOH pellets (174 mg), NaH2PO4.2H2O (2.235 g), and NaCl (3.093 g) were dissolved in 500 mL of water. The pH was adjusted to 6.5 using 1 M NaOH solution.
Preparation of FaSSIF: Sodium taurocholate (165 mg) was dissolved in 25 mL blank FaSSIF. 0.6 mL of a solution containing 100 mg/mL lecithin in methylene chloride was added. The methylene chloride was eliminated under vacuum at about 40° C. The vacuum was drawn for 15 minutes at 250 mbar, followed by 15 minutes at 100 mbar. […] After cooling to room temperature, the solution was then adjusted to 100 mL with blank FaSSIF.
The suspension was equilibrated at 25° C. for 24 hours, and then the pH was measured. The suspension was then filtered through a glass fibre C filter into a 96-well plate. The filtrate was then diluted by a factor of 100. Quantification was made by HPLC with reference to a standard solution of compound at approximately 0.1 mg/mL in DMSO. Different volumes of the standard, diluted and undiluted sample solutions were injected. The solubility was calculated using the peak areas determined by integration of the peak found at the same retention time as the principal peak in the standard injection. Analysis was performed on an Agilent HP1100 series system equipped with a diode array detector and using ChemStation software vB.02.01-SR1.

Usually IC50 stands for the concentration needed to halve the response being measured. Usually half-life stands for the time needed for the level to fall by half in the phase considered. Low readings indicate fast loss, high ones slow loss. In general, solubility refers to the concentration that dissolves in the medium under given conditions. Turning to `NS(=O)(=O)c1cccc(NS(=O)(=O)c2ccc(-c3ccc(Cl)cc3Cl)cc2)c1` [ABD751, 2′,4′-Dichloro-N-(3-sulfamoylphenyl)biphenyl-4-sulfonamide], the concentration for half-maximal inhibition (IC50) with J774 macrophages was 870 nM. The molecule also registered a half-life at 3 μM in data set [1] of 46 min. This molecule also came in with a solubility at 24 h in data set [2] of 40 µg/mL (≈ 87.5 µM).

With `O=S(=O)(Nc1cccc(C(O)C(F)(F)F)c1)c1ccc(-c2ccc(Cl)cc2Cl)cc1` (stereo not drawn) [ABD766, 2′,4′-Dichloro-N-(3-(2,2,2-trifluoro-1-hydroxyethyl)phenyl)biphenyl-4-sulfonamide], the 50% inhibitory concentration (IC50) in the data set with J774 macrophages was 710 nM. In data set [1], this molecule registered a half-life at 3 μM of 16 min. The solubility at 24 h in data set [2] is 20 µg/mL (≈ 42 µM).

For `CNCC(O)c1cccc(NS(=O)(=O)c2ccc(-c3ccc(F)cc3F)cc2)c1` (stereo not drawn) [ABD783, 2′,4′-Difluoro-N-(3-(1-hydroxy-2-(methylamino)ethyl)phenyl)biphenyl-4-sulfonamide], in the data set on J774 macrophages, the IC50 stood at 1180 nM. Besides, in data set [1], the T1/2 result is listed as “Stable”. For the same molecule, the solubility at 24 h in data set [2] is 370 µg/mL (≈ 884 µM).

Regarding `O=S(=O)(Nc1cccc(C(O)CN2CCOCC2)c1)c1ccc(-c2ccc(F)cc2F)cc1` (stereo not drawn) [ABD785, 2′,4′-Difluoro-N-(3-(1-hydroxy-2-morpholinoethyl)phenyl)biphenyl-4-sulfonamide], the IC50 with J774 macrophages is 4710 nM. This molecule returned a half-life at 3 μM in data set [1] of 6 min. Moreover, in data set [2], the solubility at 24 h was 210 µg/mL (≈ 443 µM).

Regarding `NCc1cccc(NS(=O)(=O)c2ccc(-c3ccc(F)cc3F)cc2)c1` [ABD788, N-(3-(Aminomethyl)phenyl)-2′,4′-difluorobiphenyl-4-sulfonamide], the 50% inhibitory concentration (IC50) with J774 macrophages was found to be 1000 nM. Besides, the half-life at 3 μM in data set [1] was determined as 60 min. In data set [2], this molecule registered a solubility at 24 h of 50 µg/mL (≈ 134 µM).

With `CN(C)C(CO)c1cccc(NS(=O)(=O)c2ccc(-c3ccc(F)cc3F)cc2)c1` (stereo not drawn) [ABD791, N-(3-(1-(Dimethylamino)-2-hydroxyethyl)phenyl)-2′,4′-difluorobiphenyl-4-sulfonamide], the concentration for half-maximal inhibition (IC50) with J774 macrophages is 570 nM. Besides, the half-life at 3 μM in data set [1] came out at 27 min. Moreover, the concentration in solution in data set [2] (solubility at 24 h) was 3000 µg/mL (≈ 6940 µM).

Consider `O=S(=O)(Nc1cccc(C(CO)N2CCOCC2)c1)c1ccc(-c2ccc(F)cc2F)cc1` (stereo not drawn) [ABD792, 2′,4′-Difluoro-N-(3-(2-hydroxy-1-morpholinoethyl)phenyl)biphenyl-4-sulfonamide], for which, in the data set with J774 macrophages, the IC50 was greater than 30000 nM. Also, in data set [1], the half-life at 3 μM worked out at 2 min. Also, the concentration in solution in data set [2] (solubility at 24 h) came to 4400 µg/mL (≈ 9270 µM).

On to `N[C@H](CO)c1cccc(NS(=O)(=O)c2ccc(-c3ccc(F)cc3F)cc2)c1` [ABD855, (S)—N-(3-(1-Amino-2-hydroxyethyl)phenyl)-2′,4′-difluorobiphenyl-4-sulfonamide], for which the concentration for half-maximal inhibition (IC50) in the data set on J774 macrophages worked out at 860 nM. The half-life at 3 μM in data set [1] worked out at 289 min. The same molecule yielded a solubility at 24 h in data set [2] of 4100 µg/mL (≈ 10100 µM).
